Reference: ChEMBL document CHEMBL4266054, “Kinase Inhibitors for Treatment of Cancer and Inflammation” (ACS Med Chem Lett, 2018)

Tests used:
[1] = biological target: T1, Inhibitor of nuclear factor kappa-B kinase subunit epsilon (Homo sapiens) (UniProt Q14164); assay: Inhibition of IKK-epsilon (unknown origin) using fluorescein-labelled DRHDSGLDSMKDE as substrate after 1 hr by TR-FRET assay
T1 sequence (whole entry): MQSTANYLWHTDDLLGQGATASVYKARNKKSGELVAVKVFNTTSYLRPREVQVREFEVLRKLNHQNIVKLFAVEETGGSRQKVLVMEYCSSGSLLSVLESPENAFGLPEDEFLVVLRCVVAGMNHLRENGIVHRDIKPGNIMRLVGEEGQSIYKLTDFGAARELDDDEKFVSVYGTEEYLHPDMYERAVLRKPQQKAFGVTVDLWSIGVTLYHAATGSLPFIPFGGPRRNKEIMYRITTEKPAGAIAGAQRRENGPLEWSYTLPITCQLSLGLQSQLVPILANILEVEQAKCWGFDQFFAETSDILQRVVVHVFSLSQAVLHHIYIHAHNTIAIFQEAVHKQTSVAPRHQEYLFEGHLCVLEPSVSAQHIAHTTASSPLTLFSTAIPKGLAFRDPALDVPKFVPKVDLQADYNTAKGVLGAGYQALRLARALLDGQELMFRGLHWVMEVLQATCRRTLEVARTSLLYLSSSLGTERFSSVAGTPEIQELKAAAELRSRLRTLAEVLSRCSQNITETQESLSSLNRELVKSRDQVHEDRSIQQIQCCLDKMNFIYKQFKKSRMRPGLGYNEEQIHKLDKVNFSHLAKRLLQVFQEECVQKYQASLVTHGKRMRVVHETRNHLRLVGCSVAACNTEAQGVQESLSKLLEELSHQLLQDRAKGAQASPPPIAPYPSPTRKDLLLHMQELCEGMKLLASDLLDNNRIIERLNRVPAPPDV

[2] = biological target: T2, Serine/threonine-protein kinase TBK1 (Homo sapiens) (UniProt Q9UHD2); assay: Inhibition of TBK1 (unknown origin) using fluorescein-labelled DRHDSGLDSMKDE as substrate after 1 hr by TR-FRET assay
T2 sequence (whole entry): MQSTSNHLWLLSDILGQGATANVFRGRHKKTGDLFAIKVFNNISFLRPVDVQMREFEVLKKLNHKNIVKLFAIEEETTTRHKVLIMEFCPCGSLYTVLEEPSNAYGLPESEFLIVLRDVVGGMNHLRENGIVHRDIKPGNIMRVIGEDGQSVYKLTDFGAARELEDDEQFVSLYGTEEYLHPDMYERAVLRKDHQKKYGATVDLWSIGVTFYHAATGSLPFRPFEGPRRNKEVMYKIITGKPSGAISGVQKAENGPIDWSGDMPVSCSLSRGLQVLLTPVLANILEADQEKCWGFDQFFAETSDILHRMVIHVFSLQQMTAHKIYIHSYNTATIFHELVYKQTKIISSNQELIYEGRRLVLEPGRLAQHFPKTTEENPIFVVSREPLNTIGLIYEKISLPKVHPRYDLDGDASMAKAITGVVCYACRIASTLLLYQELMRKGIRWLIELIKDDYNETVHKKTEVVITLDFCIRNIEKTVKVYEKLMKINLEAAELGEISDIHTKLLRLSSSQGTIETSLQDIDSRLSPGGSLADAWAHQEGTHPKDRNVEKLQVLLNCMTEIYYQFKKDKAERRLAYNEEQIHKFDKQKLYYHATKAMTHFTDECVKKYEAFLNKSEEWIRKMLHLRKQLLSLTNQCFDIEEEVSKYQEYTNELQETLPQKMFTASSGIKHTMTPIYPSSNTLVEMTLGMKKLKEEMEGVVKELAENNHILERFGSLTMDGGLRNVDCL

[3] = biological target: Serine/threonine-protein kinase SIK2 (Homo sapiens) (UniProt Q9H0K1); assay: Inhibition of human SIK2 using AMARAASAAALARRR as substrate in presence of [gamma33P]ATP by kinase hotspot assay
[4] = Half life in Balb/c mouse at 0.5 mg/kg, iv by mass spectrometry; type: ADME, organism-based; conditions: in vivo
[5] = Volume of distribution in Balb/c mouse at 0.5 mg/kg, iv by mass spectrometry; type: ADME, organism-based; conditions: in vivo

Chain of Serine/threonine-protein kinase SIK2 (Homo sapiens) (Q9H0K1 whole entry, looked up): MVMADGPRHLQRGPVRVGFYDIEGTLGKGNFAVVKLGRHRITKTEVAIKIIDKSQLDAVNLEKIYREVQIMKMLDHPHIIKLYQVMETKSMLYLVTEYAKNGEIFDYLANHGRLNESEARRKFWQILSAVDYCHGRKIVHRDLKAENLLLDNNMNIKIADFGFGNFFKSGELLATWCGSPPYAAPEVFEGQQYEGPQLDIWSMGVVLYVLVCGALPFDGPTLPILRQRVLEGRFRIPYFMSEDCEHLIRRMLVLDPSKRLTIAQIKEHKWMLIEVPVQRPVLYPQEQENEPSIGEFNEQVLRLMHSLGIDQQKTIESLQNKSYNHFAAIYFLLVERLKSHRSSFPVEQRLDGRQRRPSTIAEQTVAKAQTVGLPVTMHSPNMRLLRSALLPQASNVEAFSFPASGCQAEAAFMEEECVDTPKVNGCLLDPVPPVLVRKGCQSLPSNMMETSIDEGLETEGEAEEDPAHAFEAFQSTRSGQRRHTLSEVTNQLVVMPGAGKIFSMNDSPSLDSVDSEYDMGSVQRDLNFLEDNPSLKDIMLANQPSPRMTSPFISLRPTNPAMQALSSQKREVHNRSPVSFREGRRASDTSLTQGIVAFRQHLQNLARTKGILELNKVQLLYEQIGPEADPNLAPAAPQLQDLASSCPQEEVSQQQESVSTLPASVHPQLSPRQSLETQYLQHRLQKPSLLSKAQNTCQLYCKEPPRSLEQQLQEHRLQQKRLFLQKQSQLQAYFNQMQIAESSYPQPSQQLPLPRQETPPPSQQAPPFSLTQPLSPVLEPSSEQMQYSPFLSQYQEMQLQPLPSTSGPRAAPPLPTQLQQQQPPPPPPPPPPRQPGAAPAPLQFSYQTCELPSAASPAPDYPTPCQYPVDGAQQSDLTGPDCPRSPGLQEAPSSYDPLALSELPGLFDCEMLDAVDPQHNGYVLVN

Row | INH [1] [nM] | INH [2] [nM] | INH [3] [nM] | half-life [4] [min] | Vd [5] [L/kg] | SMILES
1 | 21 | 20 |  |  |  | CCN1CCN(Cc2ccc(Nc3nccc(-c4cnc(N5CC[C@@H](F)C5)c(C#N)c4)n3)cn2)CC1
2 | 24 | 17 |  |  |  | CN1CCN(Cc2ccc(Nc3nccc(-c4cnc(N5CC[C@H](F)C5)c(C#N)c4)n3)cn2)CC1
3 | 16 | 9 | 7 |  |  | CCN1CCN(Cc2ccc(Nc3nccc(-c4cnc(N5CC[C@H](F)C5)c(C#N)c4)n3)cn2)CC1
4 | < 30 | < 30 |  | 30 |  | N#Cc1cc(-c2ccnc(Nc3ccc(NC(=O)CN4CCOCC4)nc3)n2)cnc1N1CC[C@H](F)C1
5 | < 15 | < 15 |  |  |  | N#Cc1cc(-c2ccnc(Nc3ccc(CN4CCNC(=O)C4)nc3)n2)cnc1N1CC[C@H](F)C1
6 | < 15 | < 15 |  | 30 | 0.3 | N#Cc1cc(-c2ccnc(Nc3ccc(CN4CCOCC4)nc3)n2)cnc1N1CC[C@H](F)C1
